These results are taken from the METLIN SMRT retention time set (Domingo-Almenara et al. 2019).

This data set can be described thus: gradient 5% acetonitrile 3 min, to 50% in 2 min, to 85% in 15 min, held 3 min, 100 µL/min. As to conditions: column: Zorbax Extend-C18 2.1 x 50 mm; eluents: water / acetonitrile, 0.1% formic acid. The method in brief:
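The mobile phases were water and acetonitrile, each with 0.1% formic acid, pumped at 100 μL/min through a Zorbax Extend-C18 column (2.1 × 50 mm, 1.8 μm). Pure standards were injected as mixtures of ~100 molecules and detected by a quadrupole time-of-flight mass spectrometer in positive and negative ionization mode. Retention time came from computationally picked adduct peaks, each inspected by hand.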
As to `CC1CCCN(C(=O)c2ccc(-n3cccn3)nc2)C1` (centres undefined), the RP-LC retention time came out at 825 s.

Regarding `Cc1ccc(C)c(Cn2nc3c(S(=O)(=O)N4CCCCCC4)cccn3c2=O)c1`, the RP-LC retention time amounted to 1050 s.

`Cc1ccsc1-c1nnc(CC(=O)N2CCN(C3CCCCC3)CC2)o1` yielded an RP-LC retention time of 616 s.

`CCOC(=O)CNC(=O)C1CCN(c2ncccc2S(=O)(=O)N2CCCCC2)CC1` displayed an RP-LC retention time of 784 s.

For the molecule `CC1=C(c2ccc(Cl)cc2)S(=O)(=O)N=C1N1CCC(C(=O)NCCc2ccco2)CC1`, the RP-LC retention time is 870 s.

With `CC(=O)c1ccc(NC(=O)CCSc2ccc(F)cc2)cc1`, the RP-LC retention time was 835 s.

The molecule `COc1ccc(-n2nnc(-c3nc(C)c(C(=O)NCc4ccco4)s3)c2C)cc1` returned an RP-LC retention time of 879 s.

`CCc1ccc(C(O)CN2CCN(c3ccccn3)CC2)cc1` (centres undefined) registered an RP-LC retention time of 572 s.

In turn, `COc1ccc(NC(=O)CN2C(=O)CC(c3cccs3)=Nc3ccccc32)cc1` displayed an RP-LC retention time of 899 s.

In turn, `CCOc1ccccc1NC(=O)c1cn(-c2cc(N3CCC(C)CC3)ncn2)cn1` gave an RP-LC retention time of 1300 s.

The molecule `CCOC(=O)C1CCN(C(=O)c2sc(Nc3ccc(F)cn3)nc2C)CC1` came in with an RP-LC retention time of 771 s.

As to `CCc1nnc(-c2cccn2CC(=O)Nc2cc(OC)cc(OC)c2)o1`, the RP-LC retention time came out at 787 s.

Molecule `O=C(NC1CCCCCC1)c1ccc(CN2CCN(C3CCCC3)C(=O)C2=O)cc1` gave an RP-LC retention time of 823 s.

The molecule `O=C(CN1C(=O)NC2(CCCCC2)C1=O)Nc1ccc2c(c1)CCC2` gave an RP-LC retention time of 846 s.

Turning to `C#CCOCC1CCCN(S(=O)(=O)c2cc(C)c(Cl)cc2Cl)C1` (centres undefined), the RP-LC retention time was found to be 1130 s.

As for `CN(C)c1cccc(-c2nc(-c3cn(Cc4cccc(F)c4)nn3)no2)c1`, the RP-LC retention time is 677 s.

Molecule `CCNC(=O)c1[nH]c2ccc(C)cc2c1N1CCCC1=O` returned an RP-LC retention time of 690 s.

In turn, `CSc1ccc(-c2nc3nc(C)cc(C)n3c2Nc2ccccc2)cc1` gave an RP-LC retention time of 755 s.

Consider `CCCNC(=O)C1CCCN(c2nc3ncn(CC(=O)Nc4ccc(C)c(C)c4)c(=O)c3s2)C1` (centres undefined), for which the RP-LC retention time came out at 715 s.

Molecule `COc1ccc(C(C)NC(=O)c2c(C)sc3ccn(CC(C)C)c(=O)c23)cc1` (centres undefined) came in with an RP-LC retention time of 962 s.

As to `CC(C)CNC(=O)/C=C\C(=O)O`, the RP-LC retention time was 717 s.

`O=C1CCCc2c1cc(C(=O)Nc1ccc(Cl)cc1)c(=O)n2-c1ccc(F)cc1` returned an RP-LC retention time of 1060 s.

Turning to `Cc1noc(C)c1CC(=O)NCC1Cn2cccc2C(=O)N1C` (centres undefined), the RP-LC retention time worked out at 598 s.

For the molecule `Cc1oc(-c2ccc(Cl)cc2)nc1CN1CCC(C(=O)NCCCN(C)Cc2ccccc2)CC1`, the RP-LC retention time came out at 615 s.

As to `O=C(Nc1cc(C(F)(F)F)ccc1Cl)c1cccc(Oc2ncccn2)c1`, the RP-LC retention time came to 900 s.

On to `COC(=O)c1c(C)[nH]c(C(=O)N2CCC(CC(=O)NCc3cccc(F)c3)CC2)c1C`, for which the RP-LC retention time worked out at 735 s.

`O=C(NCc1ccccn1)c1ccc2c(c1)nc1n2CCCCC1` showed an RP-LC retention time of 548 s.

The molecule `CCOC(=O)C(=O)NCC1CCCN1S(=O)(=O)c1ccc(OC)cc1` (centres undefined) displayed an RP-LC retention time of 700 s.

`O=C(C1CC1)N1CCc2sc(S(=O)(=O)NCc3ccc(F)cc3)cc2C1` had an RP-LC retention time of 805 s.

As for `COc1ccc(NC(=O)Nc2cccc(-c3ccc(N4CCOCC4)nn3)c2)cc1`, the RP-LC retention time amounted to 658 s.

For `CCOCCCN1C(=O)CN(C2CCCCCC2)C(=O)C1c1ccc(OC)cc1` (centres undefined), the RP-LC retention time turned out to be 902 s.

Molecule `COc1ccc(OC)c(CNC(=O)Cc2cccn2-c2ccc(C)cc2)c1` had an RP-LC retention time of 750 s.

`O=C(Nc1cnn(-c2ncc(N3CCCCC3)cn2)c1)c1ccccc1C(F)(F)F` yielded an RP-LC retention time of 865 s.

Molecule `COc1cccc(NC(=O)Cn2nc3cc(C)nc(Nc4ccc(F)c(C)c4)n3c2=O)c1` displayed an RP-LC retention time of 1040 s.

`COc1ccccc1-c1noc(-c2nn(-c3ccc(Cl)cc3)ccc2=O)n1` showed an RP-LC retention time of 832 s.

In the case of `COC(=O)c1cnc2nc(C)ccc2c1Nc1ccc(S(N)(=O)=O)cc1`, the RP-LC retention time is 586 s.

The molecule `O=C(CCC(=O)N1CC2CCCN2c2ccccc21)NCc1ccco1` (centres undefined) showed an RP-LC retention time of 1090 s.

In turn, `CC(=O)N1CCCC1CCc1ncc(C)n1C(C)C` (centres undefined) had an RP-LC retention time of 577 s.

Turning to `CCCn1cc(C(=O)Nc2ccc(C)cc2)c(S(=O)(=O)N2CCSCC2)n1`, the RP-LC retention time turned out to be 1090 s.

With `CCn1c(N2CCCC(C(=O)NCc3cccc(OC)c3)C2)cc(=O)n(C)c1=O` (centres undefined), the RP-LC retention time turned out to be 764 s.

`CCCCNC(=O)CN1C(=O)C2CCCCN2c2ccc(S(=O)(=O)N3CCCC3)cc21` (centres undefined) yielded an RP-LC retention time of 873 s.

For `COc1ccc(N2C=C(C#N)S(=O)(=O)c3ccc(Cl)cc32)cc1OC`, the RP-LC retention time was 916 s.

On to `CNC(=O)[C@@H]1CN(C(=O)c2sc(C)nc2C)C[C@H]1c1n[nH]c(C)n1`, for which the RP-LC retention time stood at 559 s.

Molecule `Cc1nc(CC(=O)Nc2ccc(F)cc2C)cs1` yielded an RP-LC retention time of 737 s.

In turn, `COc1ccccc1N1CCN(CCNC(=O)C(=O)NC2CCCCC2)CC1` returned an RP-LC retention time of 599 s.

In turn, `Cc1nc(OCC(=O)N2CCc3ccccc32)c2c(-c3ccccc3)noc2n1` registered an RP-LC retention time of 1100 s.

For `CCCNC(=O)C1CCCN(c2nc3ncn(CC(=O)Nc4ccc5c(c4)CCC5)c(=O)c3s2)C1` (centres undefined), the RP-LC retention time was 762 s.

Molecule `CCOC(=O)CC(=O)CSc1ncnc2c1cnn2-c1ccc(F)cc1` had an RP-LC retention time of 985 s.

In the case of `CN(C)c1cccc(C(=O)Nc2cnn(-c3ncc(N4CCCC4)cn3)c2)c1`, the RP-LC retention time was 749 s.

In turn, `Cc1cc2c(cc1S(=O)(=O)N1CCCC1C(=O)NC1CCCCCC1)OC(C)C(=O)N2` (centres undefined) gave an RP-LC retention time of 834 s.

Molecule `CSc1ccc(-c2nc3cnccn3c2Nc2cccc(C(N)=O)c2)cc1` came in with an RP-LC retention time of 684 s.

With `COc1ccc(S(=O)(=O)Nc2cccn3c(C4CCC4)nnc23)cc1Cl`, the RP-LC retention time is 822 s.

In turn, `COc1cc2c(cc1OC)CN(S(=O)(=O)CCCNC(=O)CC1CCCCC1)CC2` came in with an RP-LC retention time of 767 s.

Molecule `O=S(=O)(c1ccc(-c2noc(-c3ccccc3F)n2)cc1)N1CCOCC1` displayed an RP-LC retention time of 1030 s.

Molecule `Cc1cccc(NC(=O)C2CCN(S(=O)(=O)c3cc(C(=O)N4CCCC4)cs3)CC2)c1C` returned an RP-LC retention time of 818 s.

`Cc1cccc(N2CCN(C(=O)c3cc4c(=O)n(C)ccc4n3C)CC2)c1C`: the RP-LC retention time came to 818 s.

`COc1ccc(C2Cn3cnc(-c4nc(-c5ccc6c(c5)OCO6)no4)c3CO2)cc1` (centres undefined): the RP-LC retention time came out at 1000 s.

On to `CCc1noc(NC(C)=O)c1-c1ccc(C)c(S(=O)(=O)Nc2cccc(Cl)c2)c1`, for which the RP-LC retention time is 867 s.

On to `CCn1nc(C)c2c(-c3ccccc3)cc(OC(C)C(=O)Nc3ccc(C(C)=O)cc3)nc21` (centres undefined), for which the RP-LC retention time stood at 1030 s.

In turn, `COc1cc(NC(=O)C2CCCN(c3ncnc4c3nc3n4CCCCC3)C2)cc(OC)c1OC` (centres undefined) registered an RP-LC retention time of 720 s.

As to `CN(Cc1cccnc1)C(=O)C12CCC=C1N(C1CCCC1)C(=O)CC2` (centres undefined), the RP-LC retention time is 577 s.

For `COc1ccc2[nH]cc(CCNC(=O)C(C)C3CCN(S(=O)(=O)c4c(C)noc4C)CC3)c2c1` (centres undefined), the RP-LC retention time came to 831 s.

As for `Cc1ccc(CNC(=O)CN2CCN(Cc3ccc(F)cc3)C2=O)cc1C`, the RP-LC retention time was 835 s.

For `CN1CCC(N2CCN(S(=O)(=O)c3cc(-c4nc(C(C)(C)C)cs4)cs3)CC2)CC1`, the RP-LC retention time is 660 s.

Regarding `O=C(NCc1nc(-c2ccc(N3CCCC3)cc2)no1)c1ccco1`, the RP-LC retention time was 889 s.

Regarding `Cc1cc(C)n(CCNC(=O)c2c(F)cccc2F)n1`, the RP-LC retention time was found to be 607 s.

Take `CCOC(=O)c1c(C)[nH]c(C(=O)N2CCC(C(C)C(=O)NCc3ccc(C)cc3)CC2)c1C` (centres undefined): the RP-LC retention time is 846 s.

As to `COc1ccc(NC(=O)CSc2nnc3c4cc(-c5ccccc5)nn4ccn23)c(OC)c1`, the RP-LC retention time is 858 s.

Turning to `CC(C)c1ccc(NC(=O)CC2=C3CCCCC3N(C(C)C)C2=O)cc1` (centres undefined), the RP-LC retention time came out at 1070 s.

Turning to `O=C(Cn1c(=O)cc(C(=O)N2CCc3ccccc3C2)c2ccccc21)Nc1ccc2c(c1)OCCO2`, the RP-LC retention time turned out to be 831 s.

Regarding `Cc1cccc(-c2nc(Cc3noc(CNC(=O)c4ccccc4)n3)c(C)o2)c1`, the RP-LC retention time stood at 924 s.

In turn, `O=[N+]([O-])c1c(NCCCO)cc(N2CCN(c3ccccn3)CC2)c2nonc12` returned an RP-LC retention time of 584 s.

Molecule `CN1CCN(C(=O)c2csc(N3CCN(c4ccc(F)cc4)CC3)n2)CC1` came in with an RP-LC retention time of 643 s.

As for `CCC(C)NC(=O)C1CCN(CCc2cn(C)c3ncccc23)CC1` (centres undefined), the RP-LC retention time was determined as 574 s.

The molecule `Cc1ccc(NC(=O)Cn2c(=O)cc(-c3nc(C(C)C)no3)c3ccccc32)cc1F` registered an RP-LC retention time of 1080 s.

In the case of `CC(C)NC(=O)c1cn(-c2ccc(-c3nc(C(C)(C)C)no3)cn2)cn1`, the RP-LC retention time stood at 970 s.

The molecule `Cc1ccc(Oc2nccnc2SCC(=O)Nc2cc(C)cc(C)c2)cc1` yielded an RP-LC retention time of 1200 s.

Consider `Clc1ccc(-c2nc(NC3CCCCC3)c3ccccc3n2)cc1`, for which the RP-LC retention time was 924 s.

The molecule `O=C(CNC(=O)Cc1ccccc1)NCC(=O)N1CCCc2ccccc21` had an RP-LC retention time of 710 s.
